Assay [1] concerns Human Umbilical Vein Endothelial Cells (HUVECs). The assay can be described thus: Inhibition against invasive tube formation by vascular endothelial cells in response to stimulation by angiogenic factor mixture. More on the design: key: the number of tubes formed in the absence of the test substance was designated as +++; scored on the 5-level scale of +++, ++, +, +/−, −; scored on the 5-level scale of +++, ++, +, +/−, −; scored on the 5-level scale of +++, ++, +, +/−, −; − was assigned if absolutely no tubes formed. Conditions: HUVEC on fibrin gel, EGF/FGF2/VEGF/HGF/TNF-α mixture, 6th day, MTT staining; for number of tubes formed in the fibrin gel (score) at 0.01 μM: test substance 0.01 μM; for number of tubes formed in the fibrin gel (score) at 0.1 μM: test substance 0.1 μM; for number of tubes formed in the fibrin gel (score) at 1.0 μM: test substance 1.0 μM. In kind it is cell-based. The method in brief: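 HUVECs seeded on fibrin gel in Transwells were cultured with compound plus EGF, FGF2, VEGF, HGF and TNF-α in serum-free medium at 37 °C; medium with factors and compound was renewed on days 2 and 4. On day 6, MTT-stained tubes were counted microscopically and scored on a five-level scale from +++ (no-compound control) to −.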

Assay [2] deals with T1, VEGFR2 (Homo sapiens, UniProt P35968).
T1 construct: coding for the cytoplasmic domain, beginning with lysine 791 and including the termination codon; made in house; host or cells: Sf9 insect cells (baculovirus, pFastBacHis)
In words: Inhibition against VEGFR2 kinase (receptor tyrosine kinase activity, HTRF method). It is filed as biochemical. The conditions noted are these: His6-VEGFR2 cytoplasmic domain, biotin-poly(GT) substrate, ATP, 30° C. 10 minutes, read-out: IC50 (concentration required for 50% inhibition of VEGFR2 kinase activity). In a few lines: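 Construct: His6-tagged VEGFR2 cytoplasmic domain (from Lys791), expressed in Sf9 cells. Kinase step: biotin-poly(Glu4:Tyr1) substrate, ATP added as 10 μl of 4 μM, Hepes pH 7.4 with Mg2+/Mn2+, 30 °C for 10 min, EDTA stop. Phosphotyrosine product measured by HTRF.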

T1 sequence (P35968 786-1356 limits assumed): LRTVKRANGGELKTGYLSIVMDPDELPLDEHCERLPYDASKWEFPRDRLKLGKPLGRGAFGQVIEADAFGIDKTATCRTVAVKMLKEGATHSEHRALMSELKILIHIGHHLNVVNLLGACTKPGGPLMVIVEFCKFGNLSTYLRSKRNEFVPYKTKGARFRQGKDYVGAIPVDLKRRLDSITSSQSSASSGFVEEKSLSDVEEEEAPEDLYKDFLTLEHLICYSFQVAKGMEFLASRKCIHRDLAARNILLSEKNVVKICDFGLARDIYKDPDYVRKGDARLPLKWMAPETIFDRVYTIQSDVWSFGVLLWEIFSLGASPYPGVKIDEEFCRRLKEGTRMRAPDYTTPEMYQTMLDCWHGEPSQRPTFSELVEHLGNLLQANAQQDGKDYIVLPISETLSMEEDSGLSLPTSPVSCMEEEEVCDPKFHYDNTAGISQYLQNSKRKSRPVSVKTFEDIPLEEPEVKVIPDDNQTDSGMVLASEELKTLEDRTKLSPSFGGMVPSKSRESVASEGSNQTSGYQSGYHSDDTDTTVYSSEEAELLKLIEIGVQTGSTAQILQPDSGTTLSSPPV

Consider `N#CCCCOc1cc2nccc(Oc3ccc(NC(=O)Nc4ccc(F)cc4F)c(F)c3)c2cc1C#N` [Example 55, N-(4-(6-Cyano-7-(3-cyanopropoxy)-4-quinolyl)oxy-2-fluorophenyl)-N′-(2,4-difluorophenyl)urea], for which, in assay [1], the “number of tubes formed in the fibrin gel (score) at 0.01 μM” value (from here on “number of tubes formed … at 0.01 μM”) is given as “+++”, the “number of tubes formed in the fibrin gel (score) at 0.1 μM” value (from here on “number of tubes formed … at 0.1 μM”) was “+/−” and the “number of tubes formed in the fibrin gel (score) at 1.0 μM” value (“number of tubes formed … at 1.0 μM” for short) is on record as “+/−”. For the same compound, the IC50 in assay [2] worked out at 29 nM.
Turning to `COCCOc1cc2nccc(Oc3ccc(NC(=O)Nc4ccc(F)cc4)c(F)c3)c2cc1C#N` [Example 100, N-(4-(6-Cyano-7-(2-methoxyethoxy)-4-quinolyl)oxy-2-fluorophenyl)-N′-(4-fluorophenyl)urea], in assay [1], the “number of tubes formed … at 0.01 μM” value is “++”, the “number of tubes formed … at 0.1 μM” value is on record as “+/−” and the “number of tubes formed … at 1.0 μM” value is on record as “+/−”. Further, the IC50 in assay [2] was found to be 9.6 nM.
`CCNC(=O)n1ccc2cc(Oc3ccnc4cc(OC)c(C(N)=O)cc34)ccc21` [Example 316, 6-Carbamoyl-4-(1-ethylcarbamoyl-1H-indol-5-yloxy)-7-methoxyquinoline]: in assay [1], the “number of tubes formed … at 0.01 μM” value is given as “+/−”, the “number of tubes formed … at 0.1 μM” value was “−” and the “number of tubes formed … at 1.0 μM” value is on record as “−”. Further, the IC50 in assay [2] came to 6.4 nM.
As for `NC(=O)c1cc2c(Oc3ccc(NC(=O)NC4CC4)c(F)c3)ccnc2cc1OCCCN1CCOCC1` [Example 374, 4-(4-(Cyclopropylaminocarbonyl)amino-3-fluorophenoxy)-7-(3-(4-morpholino)propoxy)-6-quinolinecarboxamide], in assay [1], the “number of tubes formed … at 0.01 μM” value is listed as “+/−”, the “number of tubes formed … at 0.1 μM” value is listed as “−” and the “number of tubes formed … at 1.0 μM” value is given as “−”. Moreover, in assay [2], the IC50 was 8.4 nM.
Turning to `COc1cc2nccc(Oc3ccc(NC(=O)NC4CC4)c(Cl)c3)c2cc1C(=O)NCCS(C)(=O)=O` [Example 404, N6-(2-(Methylsulfonyl)ethyl)-4-(3-chloro-4-(((cyclopropylamino)carbonyl)amino)phenoxy)-7-methoxy-6-quinolinecarboxamide], in assay [1], the “number of tubes formed … at 0.01 μM” value is listed as “−”, the “number of tubes formed … at 0.1 μM” value is recorded as “−” and the “number of tubes formed … at 1.0 μM” value is given as “−”. In addition, the IC50 in assay [2] came to 6.5 nM.

For the origin of these results see patent US7253286B2, “Nitrogen-containing aromatic derivatives” (Eisai Co., Ltd, priority 2000, dated 2007).
